The first test addresses T1, HIV protease (Human immunodeficiency virus type 1 group M subtype B, UniProt P04585).
T1 construct: HIV protease was expressed in E. coli; made in house; host or cells: E. coli
Briefly: Recombinant HIV Protease HPLC Assay. It is filed as biochemical. To be noted: recombinant HIV protease expressed in E. coli; substrate VSFNFPQITL-NH₂; pH 5.5; 37° for 30 min; HPLC readout. From the text:
The procedure is based on the capacity of the test compound to inhibit enzymatic cleavage by HIV protease of a decapeptide (the substrate) having an amino acid sequence which includes a known HIV protease cleavage site of a HIV polyprotein; see H.G. Krausslich et al., Proc. Natl. Acad. Sci. USA, 86, 807 (1989). Details of this assay together with the results obtained for exemplified compounds of formula 1 are described in the examples hereinafter.
Recombinant HIV Protease HPLC Assay: Enzyme: HIV protease was expressed in E. coli [construct pBRT1 prt⁺, see W.G. Farmerie et al., Science, 236,305 (1987)], according to the following protocol: Unless stated otherwise, all solutions are aqueous solutions.
E. coli cells containing the pBRT1 prt⁺ plasmid were used to inoculate a seed culture media composed of Luria-Bertani Broth containing 100µg/mL of ampicillin. Flasks were incubated at 37° under agitation for 17 h. Production flasks containing sterile M9 broth, supplemented with 100µg/ml of ampicillin, were inoculated at a level of 1% (v/v) using the seed culture described above. Total volume in each production flask was 500 mL in a 2 L Erlenmeyer flask. Flasks were incubated at 37° under agitation until a cell concentration corresponding to an optical density (λ = […]) of 0.6 was reached (no dilution). This time span was routinely 3-4 h. Flasks were then supplemented with 5mM isopropylthiogalactoside (IPTG, Research Organics, Cleveland, Ohio, USA) and incubation was continued until the cell concentration reached an optical density of 0.2 at 16-fold dilution. Flasks were then supplemented with 1mM phenylmethylsulfonyl fluoride (PMSF) and rapidly chilled to 4°. The bacterial cells were recovered by centrifugation at 4°. The wet pellet was stored at -70°.
All steps below were performed at 4° unless otherwise indicated. Thawed cells were mixed with buffer A [50 mM […] HCl(Tris-HCl, pH 7.4); 0.6 mM ethylenediaminetetraacetic acid (EDTA); 0.375 M NaCl, 0.2% Nonidet P-40 ^R (BDH Chemicals Ltd., Poole, UK); 1mM PMSF], at a ratio of one part cells to nine parts buffer A. Diatomaceous earth (Celite 545 ^R , John Manville, Lompoc, CA, USA) was added at a ratio of two parts to one part of wet cell weight. The resulting slurry was homogenized at high speed (ca. 20,000 rpm) on a Waring ^R industrial blender for 8 x 15 sec. pulses. Cell debris/Celite ^R was collected by centrifugation and the resulting pellet was extracted with 4.5 parts of buffer A to one part wet solids using the homogenization procedure described above. Supernatants from both homogenization steps were combined and soluble protein was precipitated by the addition of solid (NH₄)₂SO₄ to yield a final concentration of 75% saturation. This mixture was agitated for 60 min and the precipitate was recovered by centrifugation. The resulting pellet was suspended in buffer B [50mM Tris-HCl, pH 8; 30 mM NaCl; 1 mM DL-dithiothreitol(DTT); 1 mM EDTA; 1 mM PMSF; 10% glycerol], and dialyzed for 18h against the same buffer.
An aliquot of the dialyzed extract containing 150 mg of the protein was loaded onto a Sephadex A25 ^R anion exchange column. (Pharmacia, Uppsala, Sweden) with bed dimensions of 70 cm length and 2.5 cm diameter. The sample was eluted isocratically with buffer B at a linear flow rate of 10 cm/h. Fractions containing HIV protease activity (see below for assay description) were combined, and soluble protein was precipitated by the addition of saturated aqueous (NH₄)₂SO₄ to yield a total (NH₄)₂SO₄ concentration of 85% saturation. Precipitated protein was removed by centrifugation and the resulting pellet was dissolved in buffer C[50 mM 2-(4-morpholino)ethanesulfonic acid (MES), pH 5.5; 150 mM NaCl; 1 mM DTT; 1 mM EDTA; 10% glycerol]. This preparation was dialyzed for 18h against buffer C, and then frozen at -70°. All crude extracts were purified by chromatography in aliquots containing 150 mg of protein in the same manner as described above. […]
Regarding `CC(=O)NC(C(=O)NC(CC1CCCCC1)C(O)CC(=O)NC(CC1CC1)C(=O)NCCc1ccccc1)C(C)(C)C` (stereo not shown) [Ac-Tbg-ACHPA-Cpa-NHCH2CH2Ph, Ac-Tbg-ACHPA-Cpa-NHCH₂CH₂Ph], the IC50 (as a rule, the concentration needed to halve the response being measured) stood at 0.093 µM. For the molecule `COC(=O)CCC(NC(=O)CC(O)C(CC1CCCCC1)NC(=O)C(NC(C)=O)C(C)C)C(=O)NCCc1ccccc1` (stereo not shown) [Ac-Val-ACHPA-Glu(OMe)-NHCH2CH2Ph, Ac-Val-ACHPA-Glu(OMe)NHCH₂CH₂Ph], the IC50 was 0.48 µM. The same measure, in the same setting: the value for `CC(=O)NC(C(=O)NC(CC1CCCCC1)C(O)CC(=O)NC(CCC(=O)O)C(=O)NCCc1ccccc1)C(C)C` (stereo not shown) [Ac-Val-ACHPA-Glu-NHCH2CH2Ph, Ac-Val-ACHPA-Glu-NHCH₂CH₂Ph] was 0.031 µM.

Take `CC(=O)NC(C(=O)NC(CNC(CC(C)C)C(=O)NC(CCC(=O)O)C(=O)NCCc1ccccc1)Cc1ccccc1)C(C)C` (stereo not drawn) [Ac-Val-Pheψ[CH2NH]Leu-Glu-NHCH2CH2Ph, Ac-Val-PheΨ[CH₂NH]Leu-Glu-NHCH₂CH₂Ph]: the IC50 amounted to 0.016 µM.

Regarding `CC(C)(C)CC(=O)NC(C(=O)NC(CC1CCCCC1)C(O)CC(=O)NC(CCC(=O)O)C(=O)NCCc1ccccc1)C(C)(C)C` (stereo not shown) [(CH3)3CCH2C(O)-Tbg-ACHPA-Glu-NHCH2CH2Ph, (CH₃)₃CCH₂C(O)-Tbg-ACHPA-Glu-NHCH₂CH₂Ph], the IC50 came out at 0.11 µM. The same measure, in the same setting: then `CCC(CC)C(=O)NC(C(=O)NC(CC1CCCCC1)C(O)CC(=O)NC(CC1CC1)C(=O)NCCCc1ccccc1)C(C)C` (stereo not shown) [(C2H5)2CHC(O)-Val-ACHPA-Cpa-NHCH2CH2CH2Ph], with 0.135 µM.

As for `CC(=O)NC(C(=O)NC(CC1CCCCC1)C(O)CC(=O)NC(CCC(=O)O)C(=O)NCCc1ccccc1)C(C)(C)C` (stereo not shown) [Ac-Tbg-ACHPA-Glu-NHCH2CH2Ph, Ac-Tbg-ACHPA-Glu-NHCH₂CH₂Ph], the IC50 came to 0.012 µM. Regarding `COC(=O)CCC(NC(=O)CC(O)C(CC1CCCCC1)NC(=O)C(NC(=O)C(O)CO)C(C)(C)C)C(=O)NCCc1ccccc1` [(S)-HOCH₂CH(OH)C(O)-Tbg-ACHPA-Glu(OMe)NHCH₂CH₂Ph], the half-inhibitory concentration (IC50) was 0.2 µM. On the same count and under the same terms, then `CC(C)(C)C(NC(=O)C(O)CO)C(=O)NC(CC1CCCCC1)C(O)CC(=O)NC(CCC(=O)O)C(=O)NCCc1ccccc1` [(S)-HOCH₂CH(OH)C(O)-Tbg-ACHPA-Glu-NHCH₂CH₂Ph], with 0.0092 µM; and `COC(=O)CCC(NC(=O)CC(O)C(CC1CCCCC1)NC(=O)C(NC(C)=O)C(C)(C)C)C(=O)NCCc1ccccc1` (stereo not shown) [Ac-Tbg-ACHPA-Glu(OMe)-NHCH2CH2Ph, Ac-Tbg-ACHPA-Glu(OMe)-NHCH₂CH₂Ph], with 0.15 µM; and `CCC(=O)NC(C(=O)NC(CC1CCCCC1)C(O)CC(=O)NC(CCC(=O)O)C(=O)NCCc1ccccc1)C(C)(C)C` (stereo not shown) [CH3CH2C(O)-Tbg-ACHPA-Glu-NHCH2CH2Ph, CH₃CH₂C(O)-Tbg-ACHPA-Glu-NHCH₂CH₂Ph], with 0.015 µM.

A further test has as its system HIV. Briefly: Inhibition of syncytia formation by HIV in HTLV-I transformed C8166 cells (adapted plaque assay). It is filed as cell-based, H9/HTLV-IIIB. The settings on record: Human immunodeficiency virus 1, IIIB, C8166, 72 h, read-out: inhibition of syncytia formation. From the text:
Typical of such procedures are those described by S. Harada and N. Yamamoto, Jpn. J. Cancer Res. (Gann), 76, 432 (1985), and S. Harada et al., Science 229, 563 (1985). An assay based on the latter procedures is described in the examples hereinafter.
The following protocol, used for screening antiviral effects of the compounds of formula 1, is adapted from a plaque assay utilizing HTLV-I transformed cells which was developed by Harada et al., supra. HTLV-I transformed cells are used in these assays because of the rapidity with which HIV will replicate in these cells. • 1. The test compound is dissolved in dimethylsulfoxide to a concentration of 5 mg/mL. The resultant solution can be stored at 4° until used. • 2. The resultant solution is diluted in RPMI 1640 (Gibco Laboratories, St. Lawrence, MA, USA) to four times (4x) the final concentration which is to be tested. Once diluted in RPMI 1640, the solution is used in the cell culture assay within 4 h. • 3. The 4x solution (50µL) is added to triplicate wells of a 96 well flat bottomed microtiter plate. RPMI […] also is added to control wells. • 4. […] Infectious titer of virus stocks are as previously determined by end point dilution on C8166 cells. […] Plates are then removed and centers of syncytia are counted in each well by low power phase contrast light microscopy. […] Percent inhibition of syncytia formation is calculated by the formula: [formula]
For `COC(=O)CCC(NC(=O)CC(O)C(CC1CCCCC1)NC(=O)C(NC(=O)C(O)CO)C(C)(C)C)C(=O)NCCc1ccccc1` [(S)-HOCH₂CH(OH)C(O)-Tbg-ACHPA-Glu(OMe)NHCH₂CH₂Ph], the inhibition (as a rule, the relative decrease from the control value, in per cent) at 20 µg/mL was 100%. The same measure, in the same setting: the value for `CCC(=O)NC(C(=O)NC(CC1CCCCC1)C(O)CC(=O)NC(CCC(=O)O)C(=O)NCCc1ccccc1)C(C)(C)C` (stereo not shown) [CH3CH2C(O)-Tbg-ACHPA-Glu-NHCH2CH2Ph, CH₃CH₂C(O)-Tbg-ACHPA-Glu-NHCH₂CH₂Ph] was 49%.

The record behind these values is patent EP0443573A2, “HIV protease inhibitors containing derived amino acids” (BIO-MEGA/BOEHRINGER INGELHEIM RESEARCH INC., priority 1990, dated 1991).
